In patent US20230233541A1, “SUBSTITUTED BENZAMIDES AS MODULATORS OF TREX1” (Constellation Pharmaceuticals, Inc., priority 2020, published 2023) one finds EC50 data, which are given here for 46 compounds.

Bounds are passed on as bounds.

For one test, the target named is T1, full length human TREX1 (Homo sapiens, UniProt Q9NSU2).
T1 construct: N-terminally His-Tev tagged full length human TREX1; His-Tev (His tag with TEV protease site) (N); made in house; host or cells: E. coli
T1 sequence (Q9NSU2 1-314): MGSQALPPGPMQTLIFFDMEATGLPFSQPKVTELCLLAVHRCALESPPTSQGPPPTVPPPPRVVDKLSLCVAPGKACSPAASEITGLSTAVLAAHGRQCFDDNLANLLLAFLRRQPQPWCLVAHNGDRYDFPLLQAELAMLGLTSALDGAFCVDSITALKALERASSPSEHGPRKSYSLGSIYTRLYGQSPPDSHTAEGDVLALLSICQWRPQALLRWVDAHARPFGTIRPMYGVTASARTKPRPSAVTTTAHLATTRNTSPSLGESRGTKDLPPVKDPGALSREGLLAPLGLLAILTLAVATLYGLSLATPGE
As to the kind of experiment: TREX1 Biochemical Assay (fluorescence assay, degradation of dsDNA substrate). The note with it: 150 pM TREX1, 60 nM dsDNA substrate, 25 minutes at room temperature; read-out: hTREX1 EC50. An outline of the steps:
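E. coli-expressed His-Tev-tagged full-length TREX1 (150 pM) with 60 nM quenched-fluorophore dsDNA in Tris pH 7.4, 150 mM NaCl, 100 mM MgCl2, 1% DMSO, 25 min room temperature, 10-point dose-response. EDTA stop; fluorescence 615 nm (ex 570 nm); IC50 from four-parameter fit against pre-quenched and no-inhibitor controls.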

The target of test [1] is T2, human TREX2 (residues M44-A279) (Homo sapiens, UniProt Q9BQ50).
T2 construct: human TREX2 (residues M44-A279, expressed in E. coli); His-Tev (His tag with TEV protease site) (N); made in house; host or cells: E. coli
T2 sequence (Q9BQ50 44-279 isoform Q9BQ50-1): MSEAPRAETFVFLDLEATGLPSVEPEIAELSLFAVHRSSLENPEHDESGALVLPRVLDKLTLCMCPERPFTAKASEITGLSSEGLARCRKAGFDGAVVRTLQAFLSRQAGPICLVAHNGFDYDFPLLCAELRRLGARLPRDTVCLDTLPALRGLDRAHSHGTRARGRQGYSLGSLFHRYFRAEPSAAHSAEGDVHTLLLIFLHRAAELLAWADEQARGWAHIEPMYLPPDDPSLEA
In words: TREX2 Biochemical Assay (fluorescence assay, degradation of dsDNA substrate). To be noted: 2.5 nM TREX2, 60 nM dsDNA substrate, 25 minutes at room temperature; read-out: hTREX2 EC50. An outline of the steps: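 His-Tev-tagged human TREX2 (M44-A279, E. coli-expressed) at 2.5 nM final, with 60 nM TEX615/quencher-labelled dsDNA in pH 7.4 Tris buffer with MgCl2 and 1.0% DMSO, 10-point dose-response, 25 min at room temperature, then EDTA quench. Fluorescence read at 615 nm (ex 570 nm). IC50 from four-parameter fit against pre-quenched and no-inhibitor controls.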

By EC50 is commonly meant the concentration that produces a half-maximal response. As to `O=C(O)c1ccc(CN(Cc2c(Cl)cccc2Cl)C(=O)c2cc(F)cc(F)c2)cn1` [Compound 186], the figures for the EC50 (on full length human TREX1; in test [1]) were below 0.1 µM and 1 to 10 µM, respectively.

Turning to `O=C(C1CCOCC1)N(Cc1cccnc1)Cc1ccc(Cl)cc1Cl` [Compound 89], the EC50 on full length human TREX1 is above 10 µM; in test [1], above 100 µM.

In the case of `O=C(c1ccc(Br)cc1)N(Cc1cccnc1)Cc1ccc(Cl)cc1Cl` [Compound 6], the results for the EC50 (on full length human TREX1; in test [1]) were 1 to 10 µM and above 100 µM, respectively.

Turning to `O=C(c1ccc(CO)cc1)N(Cc1cccnc1)Cc1cc(Cl)cc(Cl)c1` [Compound 64], the EC50 at full length human TREX1 is above 10 µM; in test [1] it was above 100 µM.

Regarding `O=C(c1cccc(F)c1)N(Cc1cccnc1)Cc1cccc(Cl)c1Cl` [Compound 136], the figures for the EC50 (on full length human TREX1; in test [1]) were 0.1 to 1 µM and 10 to 100 µM, respectively.

Take `COc1ccnc(CN(Cc2ccc(C(=O)O)nc2)C(=O)c2cc(F)cc(F)c2)c1Cl` [Compound 189]: the EC50 at full length human TREX1 was in the range of 0.1 to 1 µM; in test [1], 10 to 100 µM.

As for `O=C(c1cccc(F)c1)N(Cc1cnc2ccccc2c1)Cc1ccc(Cl)cc1Cl` [Compound 109], the EC50 on full length human TREX1 was above 10 µM; in test [1], above 100 µM.

In the case of `O=C1NCc2cc(CN(Cc3ccccc3Cl)C(=O)c3cc(F)cc(F)c3)cnc21` [Compound 182], the EC50 is 1 to 10 µM on full length human TREX1 and 10 to 100 µM in test [1].

Consider `O=C(c1cc(F)c(F)c(F)c1)N(Cc1cccnc1)Cc1ccc(Cl)cc1Cl` [Compound 119], for which the EC50 on full length human TREX1 was in the range of 0.1 to 1 µM; in test [1], 10 to 100 µM.

With `O=C(O)c1ccc(CN(Cc2cncc(Cl)c2Cl)C(=O)c2cc(F)cc(F)c2)cn1` [Compound 202], the figures for the EC50 (on full length human TREX1; in test [1]) were below 0.1 µM and 1 to 10 µM, respectively.

For `O=C(c1ccc(Br)cc1Cl)N(Cc1cccnc1)Cc1cc(Cl)cc(Cl)c1` [Compound 70], the EC50 was above 10 µM on full length human TREX1 and above 100 µM in test [1].

For the compound `O=C(O)c1cc(CO)c(CN(Cc2cccc(Cl)c2Cl)C(=O)c2cc(F)cc(F)c2)cn1` [Compound 206], the EC50 is below 0.1 µM at full length human TREX1 and 10 to 100 µM in test [1].

Consider `O=C(c1ccc(F)c(Br)c1)N(Cc1cccnc1)Cc1cc(Cl)cc(Cl)c1` [Compound 38], for which the EC50 at full length human TREX1 was above 10 µM; in test [1] it was above 100 µM.

Regarding `O=C(c1cccc(F)c1)N(CCc1ccc(Cl)cc1Cl)Cc1cccnc1` [Compound 133], the EC50 at full length human TREX1 was above 10 µM; in test [1] it was above 100 µM.

Consider `O=C(CN1CCCC1)N(Cc1cccnc1)Cc1ccc(Cl)cc1Cl` [Compound 91], for which the EC50 at full length human TREX1 is above 10 µM; in test [1], above 100 µM.

As for `Cn1ncc(CN(Cc2ccc(C(=O)O)nc2)C(=O)c2cc(F)cc(F)c2)c1Cl` [Compound 184], the results for the EC50 (at full length human TREX1; in test [1]) were 0.1 to 1 µM and 10 to 100 µM, respectively.

As to `O=C(O)c1ccc(CN(Cc2ccccc2OC(F)(F)F)C(=O)c2cc(F)cc(F)c2)cn1` [Compound 199], the EC50 is 1 to 10 µM on full length human TREX1 and 10 to 100 µM in test [1].

For the compound `CC[C@@H](c1cccc(Cl)c1OC)N(Cc1cnc(C(=O)O)c(N)c1)C(=O)c1cc(F)cc(F)c1` [Compound 250], the EC50 on full length human TREX1 is below 0.1 µM; in test [1], 10 to 100 µM.

As for `CC[C@H](c1cccc(Cl)c1Cl)N(Cc1ccc(C(=O)O)nc1)C(=O)c1cc(F)cc(F)c1` [Compound 255], the results for the EC50 (on full length human TREX1; in test [1]) were below 0.1 µM and below 1 µM, respectively.

Take `O=C(c1cc(F)cc(F)c1)N(Cc1ccc(-n2cccn2)nc1)Cc1ccc(Cl)cc1Cl` [Compound 175]: the results for the EC50 (on full length human TREX1; in test [1]) were 0.1 to 1 µM and above 100 µM, respectively.

As to `NC(=O)Cc1ccc(CN(Cc2ccc(Cl)cc2Cl)C(=O)c2cc(F)cc(F)c2)cn1` [Compound 217], the figures for the EC50 (on full length human TREX1; in test [1]) were 0.1 to 1 µM and above 100 µM, respectively.

`O=C(c1cccc(F)c1F)N(Cc1cccnc1)Cc1ccc(Cl)cc1Cl` [Compound 124]: the values for the EC50 (on full length human TREX1; in test [1]) were 1 to 10 µM and above 100 µM, respectively.

Take `O=C(c1ccc(CO)cc1F)N(Cc1cccnc1)Cc1ccc(Cl)cc1Cl` [Compound 84]: the results for the EC50 (at full length human TREX1; in test [1]) were above 10 µM and above 100 µM, respectively.

As for `O=C(c1cccc(F)c1)N(Cc1cccnc1)Cc1ccccc1Cl` [Compound 139], the EC50 on full length human TREX1 is 1 to 10 µM; in test [1], above 100 µM.

`O=C(c1cc(F)cc(F)c1)N(Cc1ccc(CCO)nc1)Cc1ccc(Cl)cc1Cl` [Compound 218]: the EC50 on full length human TREX1 is 0.1 to 1 µM; in test [1] it was 10 to 100 µM.

With `O=C(c1cc(F)cc(F)c1)N(Cc1ccc(-c2cnn[nH]2)nc1)Cc1ccccc1Cl` [Compound 171], the values for the EC50 (on full length human TREX1; in test [1]) were 0.1 to 1 µM and 10 to 100 µM, respectively.

Take `O=C(c1ccc(Oc2ccc(Cl)cc2)cc1)N(Cc1cccnc1)Cc1ccc(Cl)cc1Cl` [Compound 25]: the EC50 was 1 to 10 µM on full length human TREX1 and above 100 µM in test [1].

`O=C(C1CCC(O)CC1)N(Cc1cccnc1)Cc1ccc(Cl)cc1Cl` (centres unmarked) [Compound 86]: the values for the EC50 (on full length human TREX1; in test [1]) were above 10 µM and above 100 µM, respectively.

`COc1cccc(C(=O)N(Cc2cccnc2)Cc2cc(Cl)cc(Cl)c2)c1` [Compound 36]: the EC50 was above 10 µM on full length human TREX1 and above 100 µM in test [1].

Turning to `O=C(c1cc(F)cc(F)c1)N(Cc1cccnc1)[C@@H](c1cn[nH]c1)c1ccc(Cl)cc1Cl` [Compound 222], the results for the EC50 (at full length human TREX1; in test [1]) were 1 to 10 µM and 10 to 100 µM, respectively.

As to `CC[C@@H](c1ccc(Cl)cc1Cl)N(Cc1cccnc1)C(=O)c1cccc(F)c1` (single isomer, unassigned) [Compound 158], the results for the concentration giving a half-maximal response (EC50) (on full length human TREX1; in test [1]) were 1 to 10 µM and 10 to 100 µM, respectively.

For `O=C(c1ccc(F)c(Cl)c1)N(Cc1cccnc1)Cc1ccc(Cl)cc1Cl` [Compound 19], the EC50 was 1 to 10 µM at full length human TREX1 and above 100 µM in test [1].

As to `O=C(c1cnon1)N(Cc1cccnc1)Cc1ccc(Cl)cc1Cl` [Compound 114], the figures for the half-maximal effective concentration (EC50) (at full length human TREX1; in test [1]) were above 10 µM and above 100 µM, respectively.

For the compound `COc1cc(C(=O)N(Cc2cccnc2)Cc2cc(Cl)cc(Cl)c2)ccc1F` [Compound 50], the EC50 at full length human TREX1 is above 10 µM; in test [1], above 100 µM.

`O=C(c1cc(F)cc(F)c1)N(Cc1cnc2c(=O)[nH]cnc2c1)Cc1ccccc1Cl` [Compound 183]: the EC50 lay in the range of 0.1 to 1 µM at full length human TREX1 and 10 to 100 µM in test [1].

Consider `O=C(c1ccc(Cl)c(Cl)c1)N(Cc1cccnc1)Cc1cc(Cl)cc(Cl)c1` [Compound 75], for which the EC50 is above 10 µM on full length human TREX1 and above 100 µM in test [1].

Take `Nc1ccc(CN(Cc2ccc(Cl)cc2Cl)C(=O)c2cccc(F)c2)cn1` [Compound 146, N-[(6-aminopyridin-3-yl)methyl]-N-[(2,4-dichlorophenyl)methyl]-3-fluorobenzamide]: the figures for the 50% effective concentration (EC50) (on full length human TREX1; in test [1]) were 1 to 10 µM and above 100 µM, respectively.

Take `O=C(c1cc(F)ccc1F)N(Cc1cccnc1)Cc1ccc(Cl)cc1Cl` [Compound 122]: the EC50 at full length human TREX1 is above 10 µM; in test [1], above 100 µM.

As to `Cn1cc(CN(Cc2ccc(C(=O)O)nc2)C(=O)c2cc(F)cc(F)c2)c(C(F)(F)F)n1` [Compound 185], the EC50 is 0.1 to 1 µM at full length human TREX1 and 10 to 100 µM in test [1].

On to `CC(C)(C)OC(=O)Nc1cncc(CN(Cc2cccc(Cl)c2Cl)C(=O)c2cc(F)cc(F)c2)c1` [Compound 212], for which the EC50 on full length human TREX1 fell in the range of 0.1 to 1 µM; in test [1], 1 to 10 µM.

`Cc1noc(C)c1C(=O)N(Cc1cccnc1)Cc1ccc(Cl)cc1Cl` [Compound 115]: the EC50 at full length human TREX1 was above 10 µM; in test [1] it was above 100 µM.

For `CC[C@@H](c1ccc(OC)c(OC)c1Cl)N(Cc1ccc(C(=O)O)nc1)C(=O)c1cc(F)cc(F)c1` [Compound 227], the concentration giving a half-maximal response (EC50) at full length human TREX1 is below 0.1 µM; in test [1] it was 1 to 10 µM.

Regarding `COc1cccc(CN(Cc2ccc(C(=O)O)nc2)C(=O)c2cc(F)cc(F)c2)c1C` [Compound 195], the EC50 on full length human TREX1 was below 0.1 µM; in test [1] it was 1 to 10 µM.

Turning to `O=C(c1cccc(F)c1)N(Cc1cccnc1)C1Cc2ccccc2C1` [Compound 134], the EC50 is above 10 µM on full length human TREX1 and above 100 µM in test [1].

With `O=C(c1cccc(F)c1)N(Cc1cccnn1)Cc1ccc(Cl)cc1Cl` [Compound 107], the EC50 on full length human TREX1 was above 10 µM; in test [1], above 100 µM.

As for `O=C(c1ccc(Oc2ccc(Cl)cc2)cc1)N(Cc1cccnc1)Cc1cc(Cl)cc(Cl)c1` [Compound 59], the values for the EC50 (on full length human TREX1; in test [1]) were above 10 µM and above 100 µM, respectively.
